Source: ChEMBL document CHEMBL1201862, “PubChem BioAssay data set” (2004)
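These data come from cells grown in 96-well plates and exposed to compound for 48 hours at five concentrations. The concentration for 50% growth inhibition is given as GI50.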 Activity calls are given as the source filed them. Rule as the data show it: active = GI50 up to about 1.1 µM and inactive = higher.

What was measured:
Assay in all cases: NCI anticancer screen, dose series, 48 h
NCI-H460 = tested on: NCI-H460
SF-539 = tested on: SF-539
K562 = tested on: K562
SW-620 = tested on: SW-620
SK-OV-3 = tested on: SK-OV-3
SF-295 = tested on: SF-295
SK-MEL-5 = tested on: SK-MEL-5
CAKI-1 = tested on: CAKI-1
RPMI-8226 = tested on: RPMI-8226
SF-268 = tested on: SF-268
HCT-15 = tested on: HCT-15
SK-MEL-2 = tested on: SK-MEL-2
NCI-H226 = tested on: NCI-H226
A549 = tested on: A549
A498 = tested on: A498
SNB-75 = tested on: SNB-75
DMS-114 = tested on: DMS-114
HCC 2998 = tested on: HCC 2998
HCT-116 = tested on: HCT-116
OVCAR-4 = tested on: OVCAR-4
CCRF-CEM = tested on: CCRF-CEM
SNB-78 = tested on: SNB-78
MCF7 = tested on: MCF7
OVCAR-8 = tested on: OVCAR-8
COLO 205 = tested on: COLO 205
NCI/ADR-RES = tested on: NCI/ADR-RES
M19-MEL = tested on: M19-MEL
DMS-273 = tested on: DMS-273
OVCAR-5 = tested on: OVCAR-5
KM12 = tested on: KM12
SNB-19 = tested on: SNB-19
Malme-3M = tested on: Malme-3M
KM-20L2 = tested on: KM-20L2
EKVX = tested on: EKVX
IGROV-1 = tested on: IGROV-1
HOP-62 = tested on: HOP-62
HL-60 = tested on: HL-60
UO-31 = tested on: UO-31
U-251 = tested on: U-251
LOX IMVI = tested on: LOX IMVI
NCI-H23 = tested on: NCI-H23
SK-MEL-28 = tested on: SK-MEL-28
NCI-H522 = tested on: NCI-H522
SN12C = tested on: SN12C
UACC-62 = tested on: UACC-62
UACC-257 = tested on: UACC-257
OVCAR-3 = tested on: OVCAR-3
HOP-18 = tested on: HOP-18
XF498 = tested on: XF498
HOP-92 = tested on: HOP-92
MOLT-4 = tested on: MOLT-4
RXF 393 = tested on: RXF 393
DLD-1 = tested on: DLD-1
HT-29 = tested on: HT-29
LXFL 529 = tested on: LXFL 529
MDA-N = tested on: MDA-N
Hs-578T = tested on: Hs-578T
MDA-MB-231 = tested on: MDA-MB-231
SR = tested on: SR
ACHN = tested on: ACHN
786-0 = tested on: 786-0
M14 = tested on: M14
TK-10 = tested on: TK-10

For COC1(O)c2cccc(Cl)c2C(=O)N1C1(C(N)=O)CCCCC1 (configuration not stated), the GI50 (NCI-H460) was > 100 µM (inactive), the GI50 (SF-539) was > 100 µM (inactive) and the GI50 (K562) was > 100 µM (inactive). For the same compound, the GI50 (SW-620) was > 100 µM (inactive), the GI50 (SK-OV-3) was > 100 µM (inactive) and the GI50 (SF-295) was > 100 µM (inactive). The GI50 (SK-MEL-5) was > 100 µM (inactive), the GI50 (CAKI-1) was > 100 µM (inactive) and the GI50 (RPMI-8226) was > 100 µM (inactive). For the same compound, the GI50 (SF-268) was > 100 µM (inactive), the GI50 (HCT-15) was greater than 100 µM and the GI50 (SK-MEL-2) was > 100 µM (inactive). For the same compound, the GI50 (NCI-H226) was > 100 µM (inactive), the GI50 (A549) was > 100 µM (inactive) and the GI50 (A498) was > 100 µM (inactive). For the same compound, the GI50 (SNB-75) was > 100 µM (inactive), the GI50 (DMS-114) was > 100 µM (inactive) and the GI50 (HCC 2998) was > 100 µM (inactive). The GI50 (HCT-116) was > 100 µM (inactive), the GI50 (OVCAR-4) was > 100 µM (inactive) and the GI50 (CCRF-CEM) was > 100 µM (inactive). For the same compound, the GI50 (SNB-78) was > 100 µM (inactive), the GI50 (MCF7) was > 100 µM (inactive) and the GI50 (OVCAR-8) was > 100 µM (inactive). The GI50 (COLO 205) was > 100 µM (inactive), the GI50 (NCI/ADR-RES) was > 100 µM (inactive) and the GI50 (M19-MEL) was > 100 µM (inactive). For the same compound, the GI50 (DMS-273) was > 100 µM (inactive), the GI50 (OVCAR-5) was > 100 µM (inactive) and the GI50 (KM12) was > 100 µM (inactive). For the same compound, the GI50 (SNB-19) was > 100 µM (inactive), the GI50 (Malme-3M) was > 100 µM (inactive) and the GI50 (KM-20L2) was > 100 µM (inactive). For the same compound, the GI50 (EKVX) was > 100 µM (inactive), the GI50 (IGROV-1) was > 100 µM (inactive) and the GI50 (HOP-62) was > 100 µM (inactive). The GI50 (HL-60) was > 100 µM (inactive), the GI50 (UO-31) was > 100 µM (inactive) and the GI50 (U-251) was > 100 µM (inactive). For the same compound, the GI50 (LOX IMVI) was > 100 µM (inactive), the GI50 (NCI-H23) was > 37.5 µM (inactive) and the GI50 (SK-MEL-28) was > 100 µM (inactive). The GI50 (NCI-H522) was > 100 µM (inactive), the GI50 (SN12C) was > 100 µM (inactive) and the GI50 (UACC-62) was > 100 µM (inactive). The GI50 (UACC-257) was > 100 µM (inactive), the GI50 (OVCAR-3) was > 100 µM (inactive) and the GI50 (HOP-18) was > 100 µM (inactive). For the same compound, the GI50 (XF498) was > 100 µM (inactive), the GI50 (HOP-92) was 24.4 µM (inactive) and the GI50 (MOLT-4) was > 100 µM (inactive). For the same compound, the GI50 (RXF 393) was > 100 µM (inactive), the GI50 (DLD-1) was > 100 µM (inactive) and the GI50 (HT-29) was > 43.7 µM (inactive).
For COc1ccc2c(c1)c[n+](C)c1c3cc(OC)c(OC)cc3ccc21, the GI50 (K562) was 2.04 µM (inactive), the GI50 (SW-620) was 1.55 µM (inactive) and the GI50 (SK-OV-3) was 9.4 µM (inactive). The GI50 (CAKI-1) was 17.6 µM (inactive), the GI50 (RPMI-8226) was 1.75 µM (inactive) and the GI50 (SF-268) was 2.75 µM (inactive). For the same compound, the GI50 (HCT-15) was 24.9 µM, the GI50 (A549) was 2.74 µM (inactive) and the GI50 (LXFL 529) was 1.96 µM (inactive). For the same compound, the GI50 (DMS-114) was 1.98 µM (inactive), the GI50 (MDA-N) was 2.5 µM (inactive) and the GI50 (Hs-578T) was 2.23 µM (inactive). The GI50 (SNB-78) was 6.95 µM (inactive), the GI50 (OVCAR-8) was 1.73 µM (inactive) and the GI50 (COLO 205) was 1.41 µM (inactive). For the same compound, the GI50 (M19-MEL) was 6.44 µM (inactive), the GI50 (DMS-273) was 1.57 µM (inactive) and the GI50 (SNB-19) was 4.78 µM (inactive). For the same compound, the GI50 (MDA-MB-231) was 1.59 µM (inactive), the GI50 (KM-20L2) was 4.84 µM (inactive) and the GI50 (U-251) was 1.94 µM (inactive). For the same compound, the GI50 (LOX IMVI) was 1.95 µM (inactive), the GI50 (NCI-H522) was 1.67 µM (inactive) and the GI50 (SN12C) was 2.91 µM (inactive). For the same compound, the GI50 (UACC-62) was 11.3 µM (inactive), the GI50 (OVCAR-3) was 4.16 µM (inactive) and the GI50 (HOP-18) was 12.4 µM (inactive). For the same compound, the GI50 (XF498) was 4.23 µM (inactive), the GI50 (SR) was 1.38 µM (inactive) and the GI50 (DLD-1) was 4.86 µM (inactive).
For CC(N)Cc1ccc(Cl)c(Cl)c1 (configuration not stated), the GI50 (NCI-H460) was 30.1 µM (inactive), the GI50 (SF-539) was 12.4 µM (inactive) and the GI50 (K562) was 21.7 µM (inactive). For the same compound, the GI50 (SW-620) was 22 µM (inactive), the GI50 (SK-OV-3) was 74.8 µM (inactive) and the GI50 (SF-295) was > 52.2 µM (inactive). The GI50 (SK-MEL-5) was 16.6 µM (inactive), the GI50 (CAKI-1) was 23.6 µM (inactive) and the GI50 (RPMI-8226) was 34.8 µM (inactive). The GI50 (SF-268) was 71.8 µM (inactive), the GI50 (HCT-15) was 30 µM and the GI50 (SK-MEL-2) was 19.4 µM (inactive). The GI50 (NCI-H226) was 33.6 µM (inactive), the GI50 (A549) was > 100 µM (inactive) and the GI50 (A498) was 45 µM (inactive). The GI50 (LXFL 529) was 19.1 µM (inactive), the GI50 (SNB-75) was 23.3 µM (inactive) and the GI50 (DMS-114) was 24.2 µM (inactive). For the same compound, the GI50 (HCC 2998) was 17.3 µM (inactive), the GI50 (HCT-116) was 35.1 µM (inactive) and the GI50 (OVCAR-4) was 67.8 µM (inactive). For the same compound, the GI50 (CCRF-CEM) was 28.2 µM (inactive), the GI50 (SNB-78) was 28.4 µM (inactive) and the GI50 (OVCAR-8) was > 66.2 µM (inactive). For the same compound, the GI50 (COLO 205) was 20.3 µM (inactive), the GI50 (M19-MEL) was 24.2 µM (inactive) and the GI50 (DMS-273) was 39.4 µM (inactive). For the same compound, the GI50 (OVCAR-5) was 30.1 µM (inactive), the GI50 (KM12) was 10.6 µM (inactive) and the GI50 (SNB-19) was > 96.6 µM (inactive). For the same compound, the GI50 (Malme-3M) was 19.6 µM (inactive), the GI50 (KM-20L2) was 22.9 µM (inactive) and the GI50 (EKVX) was 41.5 µM (inactive). For the same compound, the GI50 (IGROV-1) was 51.6 µM (inactive), the GI50 (HOP-62) was 39.5 µM (inactive) and the GI50 (HL-60) was 18.6 µM (inactive). The GI50 (UO-31) was 19.8 µM (inactive), the GI50 (U-251) was 42.7 µM (inactive) and the GI50 (LOX IMVI) was 27.2 µM (inactive). The GI50 (NCI-H23) was > 95.1 µM (inactive), the GI50 (SK-MEL-28) was 20.4 µM (inactive) and the GI50 (NCI-H522) was 29.6 µM (inactive). The GI50 (ACHN) was 26.8 µM (inactive), the GI50 (SN12C) was 30.2 µM (inactive) and the GI50 (UACC-62) was 22.8 µM (inactive). The GI50 (UACC-257) was 22.9 µM (inactive), the GI50 (OVCAR-3) was 69.3 µM (inactive) and the GI50 (786-0) was 41.5 µM (inactive). The GI50 (HOP-18) was 27.8 µM (inactive), the GI50 (XF498) was 10.9 µM (inactive) and the GI50 (SR) was 20.5 µM (inactive). For the same compound, the GI50 (HOP-92) was 22.6 µM (inactive), the GI50 (M14) was 18.4 µM (inactive) and the GI50 (MOLT-4) was 29.2 µM (inactive). The GI50 (RXF 393) was 24.9 µM (inactive), the GI50 (DLD-1) was 34.4 µM (inactive) and the GI50 (HT-29) was 24.3 µM (inactive). For the same compound, the GI50 (TK-10) was 22.6 µM (inactive).
